Assay results taken from US12565475B2, “Small molecule compound inhibiting signal transmission path of TLR7 and TLR9 and use thereof” (AJOU UNIVERSITY INDUSTRY-ACADEMIC COOPERATION FOUNDATION, priority 2019, dated 2026).
Entries after “also recorded” stand apart in the source; their conditions may differ.

Tests used:
Type in all cases: cell-based, murine
TLR2/6 = target: T1, TLR2/6 (Mus musculus, UniProt Q9EPW9+Q9QUN7); assay: TLR2/6-mediated TNF-α secretion (FSL-1), ELISA; details: RAW 264.7, 10 or 20 μM
T1 construct: endogenous in cells; host or cells: RAW 264.7
Protocol: (§1) Agonists specific to TLR1/TLR2 (Pam3CSK4), TLR2/TLR6 (FSL-1), TLR3 (Poly I:C), TLR7 (imiquimod), and TLR8 (TL8-506) were purchased from InvivoGen Ltd. (Hong-Kong, China), and a TLR4-specific agonist (LPS from E. coli O111:B4) was purchased from Sigma-Aldrich, Inc. For TLR9-specific stimulation, class C CpG-ODN (ODN2395, 5′-TCGTCGTTTTCGGCGCGCGCCG-3′) having full phosphorothioate backbone modification was synthesized (Bioneer, Inc., Daejeon, Korea). All TLR agonists were dissolved in deionized water and applied to a culture media for TLR activation. The cells were treated with test compounds or a control medium for 1 hour, and then stimulated with a TLR agonist for 4 hours, or 24 hours in the case of poly(I:C), and the cytokine secretion was monitored.
RAW 264.7 or differentiated THP-1 cell lines were seeded onto a 96-well culture plate at a density of 2×10^4 cells/well. The cells were treated with test compounds for 1 hour followed by the stimulation with TLR agonists for 4 hours. The supernatant was transferred to pre-coated assay plates, and the secretion levels of mouse and human TNF-α were measured by respective ELISA kits (Invitrogen, Carlsbad, CA, USA). […] Absorbance was measured by a microplate reader spectrophotometer (Molecular Devices, Inc., San Jose, CA, USA), and data was interpolated from a standard curve using SoftMax Pro 5.3 software (Molecular Devices, Inc.). […]

TLR9 = target: T2, TLR9 (Mus musculus, UniProt Q9EQU3); assay: TLR9-mediated TNF-α secretion (ODN2395 stimulation), ELISA
T2 construct: endogenous in cells; host or cells: RAW 264.7
T2 sequence (Q9EQU3 26-1032): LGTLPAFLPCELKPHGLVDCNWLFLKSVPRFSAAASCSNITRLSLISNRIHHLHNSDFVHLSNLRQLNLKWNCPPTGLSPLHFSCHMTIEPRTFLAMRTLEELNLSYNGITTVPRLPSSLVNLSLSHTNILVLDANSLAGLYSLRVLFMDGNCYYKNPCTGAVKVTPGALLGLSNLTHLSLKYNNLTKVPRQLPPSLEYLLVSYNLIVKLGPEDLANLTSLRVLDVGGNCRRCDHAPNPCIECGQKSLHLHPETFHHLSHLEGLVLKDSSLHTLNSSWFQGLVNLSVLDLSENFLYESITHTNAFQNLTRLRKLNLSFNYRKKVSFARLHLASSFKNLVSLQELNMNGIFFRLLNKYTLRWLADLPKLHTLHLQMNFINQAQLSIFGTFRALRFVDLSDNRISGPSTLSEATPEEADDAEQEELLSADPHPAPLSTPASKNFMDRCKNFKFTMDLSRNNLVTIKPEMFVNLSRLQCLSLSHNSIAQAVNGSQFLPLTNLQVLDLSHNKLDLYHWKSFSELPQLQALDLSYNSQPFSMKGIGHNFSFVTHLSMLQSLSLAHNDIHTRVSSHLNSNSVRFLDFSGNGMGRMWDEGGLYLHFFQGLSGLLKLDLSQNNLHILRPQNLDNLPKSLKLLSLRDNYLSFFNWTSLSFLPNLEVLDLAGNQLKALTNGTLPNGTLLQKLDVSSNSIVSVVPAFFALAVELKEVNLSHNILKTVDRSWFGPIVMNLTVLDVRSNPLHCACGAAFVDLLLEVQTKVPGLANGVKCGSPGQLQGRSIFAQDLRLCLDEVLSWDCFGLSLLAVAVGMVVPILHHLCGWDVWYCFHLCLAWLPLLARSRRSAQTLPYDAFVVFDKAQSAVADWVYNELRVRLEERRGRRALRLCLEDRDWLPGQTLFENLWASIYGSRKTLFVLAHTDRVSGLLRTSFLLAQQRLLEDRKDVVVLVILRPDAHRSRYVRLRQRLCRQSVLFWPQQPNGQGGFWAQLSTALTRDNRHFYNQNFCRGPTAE
Protocol: as §1
RAW 264.7 or differentiated THP-1 cell lines were seeded onto a 96-well culture plate at a density of 2×10^4 cells/well. The cells were treated with test compounds for 1 hour followed by the stimulation with TLR agonists for 4 hours. The supernatant was transferred to pre-coated assay plates, and the secretion levels of mouse and human TNF-α were measured by respective ELISA kits (Invitrogen, Carlsbad, CA, USA). All experiments were performed according to the manufacturer's instructions. Absorbance was measured by a microplate reader spectrophotometer (Molecular Devices, Inc., San Jose, CA, USA), and data was interpolated from a standard curve using SoftMax Pro 5.3 software (Molecular Devices, Inc.).
In order to evaluate the antagonistic effect of each compound on TLR7/TLR9 through ELISA (enzyme-linked immunosorbent assay), RAW 264.7 cells were pretreated with the eight compounds followed by the stimulation with a TLR7-specific agonist (imiquimod, 3.61 μM) or with a TLR9-specific agonist (ODN2395, 0.5 μM). […] Since the two ligands had no agonistic effect per se (FIG. 3B), the increased cytokine production may be due to cell activation (or non-specific cellular stress) by co-treatment. Consequently, TIC10 was selected as the most suitable lead for further optimization to improve the inhibitory potency against both TLR7 and TLR9.

[1] = tested on: phosphorylation of MAPK (JNK, p38-MAPK, ERK) and p65 subunit of NF-κB; assay: Western blot of NF-κB p65 and MAPK phosphorylation after ODN2395 stimulation; details: RAW 264.7, 20 μM, ODN2395 stimulation 15 min and 30 min
Protocol: RAW 264.7 cells were seeded into a 60 mm cell culture dish at a density of 2×10^6 cells/dish, and treated with test compounds followed by TLR agonists. The cell lysate was harvested through mammalian protein extraction kit (M-PER; Thermo Fisher Scientific, Inc.) with the protease and phosphatase inhibitor cocktail (Thermo Fisher Scientific, Inc.), and the protein levels were quantified using a bicinchoninic acid assay (Sigma-Aldrich, Co.). Protein samples were separated by SDS-PAGE and transferred to nitrocellulose membranes (GE Healthcare, Inc., Chicago, IL, USA). The membranes were incubated with primary antibodies specific to phospho-JNK (Cell Signaling Technology, Inc., Danvers, MA, USA), phospho-ERK (Santa Cruz Biotechnology, Inc., Dallas, TX, USA), phospho-p38-MAPK (Cell Signaling Technology, Inc.), phospho-p65 (Cell Signaling Technology, Inc.), or β-actin (Santa Cruz Biotechnology, Inc.). […] Protein levels were confirmed using a chemiluminescent substrate (SuperSignal™ West Pico PLUS, Thermo Fisher Scientific, Inc.) and a luminescence detection system (Fusion Solo S, VILBER, France).
In general, MYD88 recruitment by TLRs triggers the activation of the transcription factor NF-κB as well as the cell proliferation factor MAPK. […]

T1 sequence (Q9QUN7 25-784): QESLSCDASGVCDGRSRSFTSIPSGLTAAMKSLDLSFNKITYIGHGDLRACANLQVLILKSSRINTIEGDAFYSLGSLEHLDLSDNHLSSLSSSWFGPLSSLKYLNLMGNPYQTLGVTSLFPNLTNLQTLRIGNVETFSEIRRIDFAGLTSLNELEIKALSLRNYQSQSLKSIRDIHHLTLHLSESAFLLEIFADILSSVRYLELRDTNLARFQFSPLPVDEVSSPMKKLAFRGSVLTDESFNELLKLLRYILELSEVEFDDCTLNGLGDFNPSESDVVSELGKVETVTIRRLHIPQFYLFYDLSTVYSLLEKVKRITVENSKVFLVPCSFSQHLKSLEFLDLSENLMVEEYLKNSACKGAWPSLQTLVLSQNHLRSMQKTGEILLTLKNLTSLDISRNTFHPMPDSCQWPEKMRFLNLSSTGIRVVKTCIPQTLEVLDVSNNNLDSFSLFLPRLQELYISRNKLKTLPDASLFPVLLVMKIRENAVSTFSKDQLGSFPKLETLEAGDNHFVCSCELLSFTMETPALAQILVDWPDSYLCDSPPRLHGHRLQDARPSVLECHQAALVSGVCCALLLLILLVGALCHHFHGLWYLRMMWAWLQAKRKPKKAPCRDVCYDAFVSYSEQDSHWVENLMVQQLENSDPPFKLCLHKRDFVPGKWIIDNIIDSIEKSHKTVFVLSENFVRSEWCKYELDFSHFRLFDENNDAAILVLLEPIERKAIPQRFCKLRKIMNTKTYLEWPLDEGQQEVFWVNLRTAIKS
T1 sequence (Q9EPW9 28-795): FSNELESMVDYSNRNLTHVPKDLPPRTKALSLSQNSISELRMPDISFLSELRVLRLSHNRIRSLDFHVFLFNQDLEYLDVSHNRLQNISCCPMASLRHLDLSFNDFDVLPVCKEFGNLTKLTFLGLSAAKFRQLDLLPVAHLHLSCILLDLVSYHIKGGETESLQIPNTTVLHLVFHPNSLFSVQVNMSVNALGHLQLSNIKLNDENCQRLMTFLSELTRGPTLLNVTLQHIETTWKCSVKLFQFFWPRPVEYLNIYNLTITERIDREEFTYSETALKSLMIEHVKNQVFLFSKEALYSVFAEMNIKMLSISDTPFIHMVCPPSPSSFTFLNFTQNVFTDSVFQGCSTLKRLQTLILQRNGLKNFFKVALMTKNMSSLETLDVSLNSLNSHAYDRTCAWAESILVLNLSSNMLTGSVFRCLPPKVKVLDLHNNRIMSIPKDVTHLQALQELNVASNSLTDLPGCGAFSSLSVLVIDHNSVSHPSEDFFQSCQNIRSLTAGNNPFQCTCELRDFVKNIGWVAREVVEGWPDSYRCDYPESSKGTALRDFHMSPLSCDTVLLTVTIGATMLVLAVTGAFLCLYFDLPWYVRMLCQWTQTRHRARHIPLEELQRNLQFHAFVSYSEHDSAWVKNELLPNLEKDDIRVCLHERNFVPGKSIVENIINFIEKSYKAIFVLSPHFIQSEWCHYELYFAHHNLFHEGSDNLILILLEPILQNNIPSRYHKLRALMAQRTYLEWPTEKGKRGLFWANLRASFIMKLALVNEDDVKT

effect on TLR2/6-mediated cytokine (TNF-α) production (TLR2/6): no effect
TLR9-mediated TNF-α secretion (TLR9; RAW 264.7, 10 or 20 μM, ODN2395 (receptor specificity, FIG. 6)): moderately reduced
IC50 (TLR9; RAW 264.7, ODN2395 (FIG. 4C)): 6.71 µM
Structure (SMILES): COc1ccc(CNc2ncc(-c3ccc4c(c3)OCO4)n2C)c(OC)c1 [TIC10-7, 5-(2H-1,3-benzodioxol-5-yl)-N-[(2,4-dimethoxyphenyl)methyl]-1-methyl-1H-imidazol-2-amine]
inhibitory efficacy on TLR9-mediated TNF-α secretion (TLR9; RAW 264.7, 10 or 50 μM, ODN2395 (FIG. 4A)): improved inhibitory efficacy compared to TIC10; also recorded: significant reduction
phosphorylation of MAPK (JNK, p38-MAPK, and ERK) and the p65 subunit of NF-κB [1]: blocked the robust phosphorylation
